From PMC7253571, “Cucurbitane-Type Triterpene Glycosides from Momordica charantia and Their α-Glucosidase Inhibitory Activities” (Natural Products and Bioprospecting, 2020)

Biological target: α-glucosidase
Assay: α-glucosidase inhibition assay (PNPG substrate, absorbance at 405 nm)
Assay type: biochemical
Conditions: substrate PNPG 2.5 mM, enzyme 1.0 U/mL, PPBS pH 6.86, 37 °C, triplicate; read-out: α-Glucosidase inhibitory activity IC50
Experimental: UV spectra were recorded on a UV-2401PC spectrometer (Shimadzu, Kyoto, Japan). Optical rotations were measured in methanol on JASCO P-1020 digital polarimeter (Jasco, Tokyo, Japan). IR spectra were scanned on a Bruker Tensor-27 Fourier transform infrared spectrometer with KBr pellets (Bruker, German). High-resolution (HR) ESI mass spectra data were measured on a Waters API QSTAR Pulsar spectrometer. 1D and 2D NMR spectra were obtained in pyridine-d5 on Bruker Ascend-400, 600 and 800 MHz NMR spectrometers with tetramethylsilane (TMS) as internal standard (Bruker, Zurich, Switzerland). Column chromatography (CC) was performed on macroporous resin (D-101, Tianjin, China), Lichroprep RP-18 (Merck, German), sephadex LH-20 (Pharmacia, USA), silica gel (200–300 mesh, Qingdao, China), and Semi-preparative HPLC was performed on an Agilent 1260 liquid chromatography system equipped with a ZORBAX SB-C18 column (5 μm, 9.4 × 250 mm, 3.0 mL/min) and a DAD detector. Fractions were detected by TLC, and spots were visualized by spraying with 10% H2SO4 in EtOH, followed by heating. α-glucosidase inhibitory activity was evaluated on the basis of the ability of the compounds to decrease glucosidase activity and then inhibit the breaking of glycosidic bonds in p-nitrophenyl-α-D-glucopyranoside (PNPG). Water was purchased from wahaha group co. LTD. Acetonitrile (chromatographic grade) was purchased from OCEANPAK (Sweden). Common organic solvents are industrial grade, used after re-distillation. PNPG was obtained from Sigma Chemical Co. (St. Louis, Mo, USA). α-glucosidase was purchased from Shanghai yuanye biotechnology Co., Ltd. Potassium phosphate buffer solution (PPBS) was obtained from Shanghai Yidian Scientific Instrument Co., Ltd. 96-well plates was purchased from Nest biotechnology co., LTD.
The α-glucosidase inhibition assay was performed according to the method adapted from the literature with slight modifications. α-glucosidase can cut glycosidic bonds in the PNPG to produce 4-nitrophenol (yellow), then measured its absorbance can determine the activity of enzyme. The test samples and ursolic acid (positive control) were dissolved in dimethylsulfoxide (DMSO), and then diluted with PPBS (pH 6.86) to the required concentration. The α-glucosidase (1.0 U/mL) and substrate (PNPG, 2.5 mM) were dissolved in PPBS. Sample wells included 60 μL of PPBS, 10 μL of test substances, 30 μL of enzyme stock solution, and incubated at 37 °C for 10 min. After the pre-incubation phase, 40 μL of PNPG solution was added and the mixture was incubated for another 20 min at 37 °C. Finally, 80 μL Na2CO3 (0.2 M) solution was added to the sample wells to stop the reaction. The absorbance of the reaction mixture was recorded at 405 nm using a microplate reader. All samples were measured in triplicate. The inhibition rate (%) was calculated by the following formula: Inhibition (%) = [1 − (Asample/Acontrol)] × 100.

Row | SMILES | IC50 [µM]
1 | COC(C)(C)/C=C/C[C@@H](C)[C@H]1CC[C@@]2(C)[C@@H]3[C@@H](O[C@@H]4O[C@H](CO)[C@@H](O)[C@H](O)[C@H]4O)C=C4C(CC[C@H](O)C4(C)C)[C@]3(C=O)CC[C@]12C (stereo partly shown) [Compound 9, momordicoside K] | 28.4 ± 2.08
2 | C=C(C)/C=C/C[C@@H](C)[C@H]1CC[C@@]2(C)[C@@H]3C=C[C@@]45O[C@@H](OC)[C@]3(CC[C@]12C)C4CC[C@H](O[C@@H]1O[C@H](CO)[C@@H](O)[C@@H](O)[C@H]1O)C5(C)C (stereo partly drawn) [Compound 6, (19R,23E)-5β,19-epoxy-19-methoxycucurbita-6,23,25-trien-3β-ol 3-O-β-D-allopyranoside] | > 100
3 | CO[C@H]1C=C2C(CC[C@H](O[C@@H]3O[C@H](CO)[C@@H](O)[C@@H](O)[C@H]3O)C2(C)C)[C@]2(C=O)CC[C@]3(C)[C@@H]([C@H](C)C/C=C/C(C)(C)OC)CC[C@@]3(C)[C@H]12 (stereo partly drawn) [Compound 10, 7β,25-dimethoxycucurbita-5(6),23(E)-dien-19-al 3-O-β-D-allopyranoside] | > 100
4 | COC1OC23C=CC4C1(CCC1(C)C(C(C)CC=CC(C)(C)O)CCC41C)C2CCC(OC1OC(CO)C(O)C(O)C1O)C3(C)C [Compound 5, 19(S)-methoxy-5β,19-epoxycucurbita-6,23-dien-3β,25-diol 3-O-β-D-glucopyranoside] | 59.1 ± 4.67
5 | CC(C)=CC=CC(C)C1CCC2(C)C3C=CC45OCC3(CCC12C)C4CCC(OC1OC(CO)C(O)C(O)C1O)C5(C)C [Compound 4, 5β,19-epoxy-cucurbita-6,22E,24-trien-3β-ol 3-O-β-D-allopyranoside] | > 100
6 | COC(C=C(C)C)CC(C)C1CCC2(C)C3C=CC45OC(OC)C3(CCC12C)C4CCC(OC1OC(CO)C(O)C(O)C1O)C5(C)C [Compound 2, (19S,23R)-5β,19-epoxy-19,23-dimethoxycucurbita-6,24-dien-3β-ol 3-O-β-D-glucopyranoside] | 63.3 ± 3.04
7 | CO[C@H]1O[C@]23C=C[C@@H]4[C@@]1(CC[C@]1(C)[C@@H]([C@H](C)C[C@@H](C=C(C)C)OC)CC[C@@]41C)C2CC[C@H](O[C@@H]1O[C@H](CO)[C@@H](O)[C@@H](O)[C@H]1O)C3(C)C (stereo partly drawn) [Compound 3, (19S,23S)-5β,19-epoxy-19,23-dimethoxycucurbita-6,24-dien-3β-ol 3-O-β-D-allopyranoside] | > 100
8 | C=C(C)/C=C/C[C@@H](C)[C@H]1CC[C@@]2(C)[C@@H]3C=C[C@@]45OC[C@]3(CC[C@]12C)[C@@H]4CC[C@H](O[C@@H]1O[C@H](CO)[C@@H](O)[C@H](O)[C@H]1O)C5(C)C [Compound 8, charantoside III] | 36.4 ± 3.03
9 | COC(C=C(C)C)CC(C)C1CCC2(C)C3C=CC45OC(OC)C3(CCC12C)C4CCC(OC1OC(CO)C(O)C(O)C1O)C5(C)C [Compound 1, (19S,23R)-5β,19-epoxy-19,23-dimethoxycucurbita-6,24-dien-3β-ol 3-O-β-D-allopyranoside] | > 100
10 | C=C(C)/C=C/C[C@@H](C)[C@H]1CC[C@@]2(C)[C@@H]3C=C[C@@]45O[C@@H](OC)[C@]3(CC[C@]12C)[C@@H]4CC[C@H](O[C@@H]1O[C@H](CO)[C@@H](O)[C@H](O)[C@H]1O)C5(C)C [Compound 7, charantoside I] | 35.1 ± 4.15
